This assay deals with human recombinant H-PGDS (Homo sapiens, UniProt O60760). Put plainly: Fluorescence Intensity h-PGDS TBA Enzyme Assay. It is filed as biochemical. The settings on record: 1:175,000 human recombinant H-PGDS, highest inhibitor concentration typically 1 μM. Put shortly:
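Recombinant human H-PGDS preincubated 10 min at room temperature with inhibitor in 100 mM Tris pH 8.0, 100 μM MgCl2, 2.5 mM glutathione, 0.5% DMSO; 5.0 μM PGH2 added, stopped after 42 s with FeCl2/citric acid. Remaining PGH2 measured as MDA–TBA fluorescence (ex 530/em 565 nm); IC50 by 4-parameter fit, 11 concentrations.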
Chain of human recombinant H-PGDS (O60760 whole entry): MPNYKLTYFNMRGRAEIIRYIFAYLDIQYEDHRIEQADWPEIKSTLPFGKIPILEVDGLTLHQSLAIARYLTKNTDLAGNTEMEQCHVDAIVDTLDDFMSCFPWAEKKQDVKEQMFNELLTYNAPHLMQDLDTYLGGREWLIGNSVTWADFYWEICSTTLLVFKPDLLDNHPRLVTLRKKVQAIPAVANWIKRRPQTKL
Usually IC50 stands for the concentration that gives 50% inhibition. As to `CC(C)CNC(=O)c1ccc(-c2cccc(F)c2)nc1` [Example 170, 6-(3-Fluorophenyl)-N-isobutylnicotinamide], the IC50 amounted to 0.0261 µM.
The figure for `COC(=O)CC(NC(=O)c1ccc(-c2cccc(F)c2)nc1)c1cccnc1` (stereo not drawn) [Example 171, Methyl 3-({[6-(3-fluorophenyl)pyridin-3-yl]carbonyl}amino)-3-pyridin-3-ylpropanoate] is 0.0527 µM; for `O=C(NCCC1CCCCO1)c1ccc(-c2cccc(F)c2)nc1` (stereo not drawn) [Example 172, 6-(3-Ffluorophenyl)-N-[2-(tetrahydro-2H-pyran-2-yl)ethyl]nicotinamide] it is 0.00574 µM; for `COC(=O)CNC(=O)c1ccc(-c2cccc(F)c2)nc1` [Example 173, Methyl N-{[6-(3-fluorophenyl)pyridin-3-yl]carbonyl}glycinate] it is 0.082 µM.
The figure for `COC(=O)[C@H](C)NC(=O)c1ccc(-c2cccc(F)c2)nc1` [Example 174, Methyl N-{[6-(3-fluorophenyl)pyridin-3-yl]carbonyl}alaninate] is 0.601 µM.
`CN1CCC(CCNC(=O)c2ccc(-c3cccc(F)c3)nc2)CC1` [Example 175, 6-(3-Fluorophenyl)-N-[2-(1-methylpiperidin-4-yl)ethyl]nicotinamide]: the IC50 turned out to be 0.0471 µM.
The figure for `O=C(NCCN1CCN(Cc2ccccc2)CC1)c1ccc(-c2cccc(F)c2)nc1` [Example 176, N-[2-(4-Benzylpiperazin-1-yl)ethyl]-6-(3-fluorophenyl)nicotinamide] is 0.0334 µM; for `O=C(Nc1ccncc1)c1ccc(-c2cccc(F)c2)nc1` [Example 177, 6-(3-Fluorophenyl)-N-pyridin-4-ylnicotinamide] it is 0.00819 µM; for `CC(=O)N1CCC(CNC(=O)c2ccc(-c3cccc(F)c3)nc2)CC1` [Example 178, N-[(1-Acetylpiperidin-4-yl)methyl]-6-(3-fluorophenyl)nicotinamide] it is 0.00688 µM.
`CC(C)NC(=O)c1ccc(-c2cccc(F)c2)nc1` [Example 179, 6-(3-Fluorophenyl)-N-isopropylnicotinamide]: the IC50 worked out at 0.0205 µM.
As to `O=C(NCc1ccc(-n2cncn2)cc1)c1ccc(-c2cccc(F)c2)nc1` [Example 180, 6-(3-Fluorophenyl)-N-[4-(1H-1,2,4-triazol-1-yl)benzyl]nicotinamide], the IC50 was found to be 0.0231 µM.
To `Cc1noc(CCNC(=O)c2ccc(-c3cccc(F)c3)nc2)n1` [Example 181, 6-(3-Fluorophenyl)-N-[2-(3-methyl-1,2,4-oxadiazol-5-yl)ethyl]nicotinamide] belongs 0.0446 µM; to `O=C(NCc1cn2ncsc2n1)c1ccc(-c2cccc(F)c2)nc1` [Example 182, 6-(3-Fluorophenyl)-N-(imidazo[2,1-b][1,3,4]thiadiazol-6-ylmethyl)nicotinamide], 0.0792 µM; to `O=C(NCCN1CCCC1=O)c1ccc(-c2cccc(F)c2)nc1` [Example 183, 6-(3-Fluorophenyl)-N-[2-(2-oxopyrrolidin-1-yl)ethyl]nicotinamide], 0.0174 µM.
To `O=C(NCc1cc(F)cc2c1OCOC2)c1ccc(-c2cccc(F)c2)nc1` [Example 184, N-[(6-Fluoro-4H-1,3-benzodioxin-8-yl)methyl]-6-(3-fluorophenyl)nicotinamide] belongs 0.0495 µM; to `O=C(NCCc1ccncc1)c1ccc(-c2cccc(F)c2)nc1` [Example 185, 6-(3-Fluorophenyl)-N-(2-pyridin-4-ylethyl)nicotinamide], 0.00899 µM; to `O=C(NCCN1CCOC1=O)c1ccc(-c2cccc(F)c2)nc1` [Example 186, 6-(3-Fluorophenyl)-N-[2-(2-oxo-1,3-oxazolidin-3-yl)ethyl]nicotinamide], 0.0346 µM.
To `COC(=O)CCNC(=O)c1ccc(-c2cccc(F)c2)nc1` [Example 187, Methyl N-{[6-(3-fluorophenyl)pyridin-3-yl]carbonyl}-beta-alaninate] belongs 0.0145 µM.
With `CCC1CCN(CCNC(=O)c2ccc(-c3cccc(F)c3)nc2)CC1` [Example 188, N-[2-(4-Ethylpiperidin-1-yl)ethyl]-6-(3-fluorophenyl)nicotinamide], the IC50 came to 0.0163 µM.
The figure for `CS(=O)(=O)c1cccc(CNC(=O)c2ccc(-c3cccc(F)c3)nc2)c1` [Example 189, 6-(3-Fluorophenyl)-N-[3-(methylsulfonyl)benzyl] nicotinamide] is 0.00674 µM; for `COc1ccc(C(CNC(=O)c2ccc(-c3cccc(F)c3)nc2)N2CCOCC2)cc1` (stereo not drawn) [Example 190, 6-(3-Fluorophenyl)-N-[2-(4-methoxyphenyl)-2-morpholin-4-ylethyl]nicotinamide] it is 1.33 µM.
To `O=C(NC1CCOCC1)c1ccc(-c2cccc(F)c2)nc1` [Example 191, 6-(3-Ffluorophenyl)-N-(tetrahydro-2H-pyran-4-yl)nicotinamide] belongs 0.00233 µM; to `CCOC(=O)CCCNC(=O)c1ccc(-c2cccc(F)c2)nc1` [Example 192, Ethyl 4-({[6-(3-fluorophenyl)pyridin-3-yl]carbonyl}amino)butanoate], 0.00904 µM.
To `Cc1ccc(CN2CCC(NC(=O)c3ccc(-c4cccc(F)c4)nc3)C2=O)cc1` (stereo not drawn) [Example 193, 6-(3-Fluorophenyl)-N-[1-(4-methylbenzyl)-2-oxopyrrolidin-3-yl]nicotinamide] belongs 0.00223 µM.
In the case of `COC(C)(C)CNC(=O)c1ccc(-c2cccc(F)c2)nc1` [Example 194, 6-(3-Fluorophenyl)-N-(2-methoxy-2-methylpropyl)nicotinamide], the IC50 was 0.376 µM.
For `O=C(NCCN1CCCCC1)c1ccc(-c2cccc(F)c2)nc1` [Example 195, 6-(3-Fluorophenyl)-N-(2-piperidin-1-ylethyl)nicotinamide], the IC50 turned out to be 0.0121 µM.
The figure for `COc1ccc(C(N)CC(=O)NC(=O)c2ccc(-c3cccc(F)c3)nc2)cc1OC` (stereo not drawn) [Example 196, N-[3-Amino-3-(3,4-dimethoxyphenyl)propanoyl]-6-(3-fluorophenyl)nicotinamide] is 0.0124 µM; for `O=C(NCCCNc1ccccn1)c1ccc(-c2cccc(F)c2)nc1` [Example 197, 6-(3-Fluorophenyl)-N-[3-(pyridin-2-ylamino)propyl]nicotinamide] it is 0.034 µM; for `CC(O)CNC(=O)c1ccc(-c2cccc(F)c2)nc1` (stereo not drawn) [Example 198, 6-(3-Fluorophenyl)-N-(2-hydroxypropyl)nicotinamide] it is 0.0387 µM.
With `O=C(NCc1noc(C(=O)N2CC[C@H](O)C2)n1)c1ccc(-c2cccc(F)c2)nc1` [Example 199, 6-(3-Fluorophenyl)-N-[(5-{[(3S)-3-hydroxypyrrolidin-1-yl]carbonyl}-1,2,4-oxadiazol-3-yl)methyl]nicotinamide], the IC50 stood at 0.622 µM.
To `O=C(NCCc1nnc(-c2ccc(F)cc2)o1)c1ccc(-c2cccc(F)c2)nc1` [Example 200, 6-(3-Fluorophenyl)-N-{2-[5-(4-fluorophenyl)-1,3,4-oxadiazol-2-yl]ethyl}nicotinamide] belongs 0.447 µM; to `CCOC(=O)Cc1noc(CNC(=O)c2ccc(-c3cccc(F)c3)nc2)n1` [Example 201, Ethyl {5-[({[6-(3-fluorophenyl)pyridin-3-yl]carbonyl}amino)methyl]-1,2,4-oxadiazol-3-yl}acetate], 0.0592 µM.
On to `COc1ccc(C(NC(=O)c2ccc(-c3cccc(F)c3)nc2)C2CC2)cc1` (stereo not drawn) [Example 202, N-[Cyclopropyl(4-methoxyphenyl)methyl]-6-(3-fluorophenyl)nicotinamide], for which the IC50 was found to be 0.0999 µM.
In the case of `Cc1cc(CNC(=O)c2ccc(-c3cccc(F)c3)nc2)c(C(F)(F)F)o1` [Example 203, 6-(3-Fluorophenyl)-N-{[5-methyl-2-(trifluoromethyl)-3-furyl]methyl}nicotinamide], the IC50 was 0.15 µM.
For `COc1ccc(C(CNC(=O)c2ccc(-c3cccc(F)c3)nc2)N(C)C)cc1` (stereo not drawn) [Example 204, N-[2-(Dimethylamino)-2-(4-methoxyphenyl)ethyl]-6-(3-fluorophenyl)nicotinamide], the IC50 was determined as 0.125 µM.
To `CCOC(=O)Cc1ccc(CNC(=O)c2ccc(-c3cccc(F)c3)nc2)cc1` [Example 205, Ethyl {4-[({[6-(3-fluorophenyl)pyridin-3-yl]carbonyl}amino)methyl]phenyl}acetate] belongs 0.0299 µM.
To `CC(C)Cc1nnc(CCNC(=O)c2ccc(-c3cccc(F)c3)nc2)o1` [Example 206, 6-(3-Fluorophenyl)-N-[2-(5-isobutyl-1,3,4-oxadiazol-2-yl)ethyl]nicotinamide] belongs 0.0166 µM; to `O=C(NCCc1nnc(C2CC2)o1)c1ccc(-c2cccc(F)c2)nc1` [Example 207, N-[2-(5-Cyclopropyl-1,3,4-oxadiazol-2-yl)ethyl]-6-(3-fluorophenyl)nicotinamide], 0.0271 µM.
As for `COc1ccc2nc(CCNC(=O)c3ccc(-c4cccc(F)c4)nc3)[nH]c2c1` [Example 208, 6-(3-Fluorophenyl)-N-[2-(6-methoxy-1H-benzimidazol-2-yl)ethyl]nicotinamide], the IC50 is 0.0183 µM.
The figure for `CCOC(=O)CCNC(=O)c1ccc(-c2cccc(F)c2)nc1` [Example 209, Ethyl N-{[6-(3-fluorophenyl)pyridin-3-yl]carbonyl}-beta-alaninate] is 0.0131 µM.
Turning to `O=C(NC(CN1CCOCC1)c1ccccc1)c1ccc(-c2cccc(F)c2)nc1` (stereo not drawn) [Example 210, 6-(3-Fluorophenyl)-N-(2-morpholin-4-yl-1-phenylethyl)nicotinamide], the IC50 stood at 0.0392 µM.
The figure for `O=C(NCc1noc(C(=O)N2CC[C@@H](O)C2)n1)c1ccc(-c2cccc(F)c2)nc1` [Example 211, 6-(3-Fluorophenyl)-N-[(5-{[(3R)-3-hydroxypyrrolidin-1-yl]carbonyl}-1,2,4-oxadiazol-3-yl)methyl]nicotinamide] is 0.362 µM.

The values are drawn from patent US20110306597A1, “Nicotinamide Derivatives” (priority 2008, published 2011).
